The record followed here is ChEMBL document CHEMBL5233229, “Recent advances in the development of ubiquitin-specific-processing protease 7 (USP7) inhibitors” (Eur J Med Chem, 2020).

The target in one assay is T1, Ubiquitin carboxyl-terminal hydrolase 7 (Homo sapiens, UniProt Q93009). Description: Inhibition of human USP7 using ubiquitin-Rh110 as substrate incubated for 23 to 45 mins by fluorescence based assay.
T1 sequence (Q93009 whole entry): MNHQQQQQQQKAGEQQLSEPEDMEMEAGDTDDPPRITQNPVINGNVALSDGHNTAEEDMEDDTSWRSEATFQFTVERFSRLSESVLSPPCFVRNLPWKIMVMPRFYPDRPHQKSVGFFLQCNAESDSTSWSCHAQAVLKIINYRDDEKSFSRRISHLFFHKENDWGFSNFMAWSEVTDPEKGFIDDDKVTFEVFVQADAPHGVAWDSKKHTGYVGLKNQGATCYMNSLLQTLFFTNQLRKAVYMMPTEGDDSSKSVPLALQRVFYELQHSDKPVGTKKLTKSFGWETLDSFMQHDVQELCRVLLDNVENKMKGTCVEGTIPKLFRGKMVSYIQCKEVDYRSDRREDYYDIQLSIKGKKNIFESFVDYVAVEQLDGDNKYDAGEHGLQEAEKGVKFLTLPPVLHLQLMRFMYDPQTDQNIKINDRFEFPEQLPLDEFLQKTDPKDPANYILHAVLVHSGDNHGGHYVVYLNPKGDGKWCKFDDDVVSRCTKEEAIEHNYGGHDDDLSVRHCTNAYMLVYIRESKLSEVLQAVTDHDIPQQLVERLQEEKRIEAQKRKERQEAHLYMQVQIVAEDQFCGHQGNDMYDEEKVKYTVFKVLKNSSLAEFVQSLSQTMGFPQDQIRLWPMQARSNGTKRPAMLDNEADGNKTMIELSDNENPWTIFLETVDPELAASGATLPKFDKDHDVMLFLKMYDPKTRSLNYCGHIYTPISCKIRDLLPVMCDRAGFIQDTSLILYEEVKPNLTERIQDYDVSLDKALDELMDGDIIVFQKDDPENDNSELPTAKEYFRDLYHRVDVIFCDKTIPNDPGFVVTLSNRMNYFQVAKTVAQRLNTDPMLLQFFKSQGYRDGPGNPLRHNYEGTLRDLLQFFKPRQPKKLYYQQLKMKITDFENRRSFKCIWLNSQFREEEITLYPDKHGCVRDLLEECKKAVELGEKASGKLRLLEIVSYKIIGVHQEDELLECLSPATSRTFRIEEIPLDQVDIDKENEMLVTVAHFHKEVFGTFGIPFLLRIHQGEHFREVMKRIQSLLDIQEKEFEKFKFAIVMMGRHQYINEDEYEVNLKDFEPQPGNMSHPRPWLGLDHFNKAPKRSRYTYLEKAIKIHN
`O=C(c1ccc(-n2cccn2)cc1)N1CCC(O)(Cn2cnn3c(-c4ccc(F)cc4)ncc3c2=O)CC1` showed an IC50 of 1 µM. On to `O=C(c1ccc(-c2ccc3ncccc3c2)cc1)N1CCC(O)(Cn2cnn3cccc3c2=O)CC1`, for which the IC50 worked out at 1 µM. With `C=C(C)C(=O)Nc1ccccc1-c1ccc(C(=O)N2CCC(O)(Cn3cnn4cccc4c3=O)CC2)cc1`, inhibition was half-maximal at 1 µM (IC50). As to `CNC(=O)Nc1cc2c(=O)n(CC3(O)CCN(C(=O)C[C@@H](C)c4ccccc4)CC3)cnn2c1`, the IC50 was less than 1 µM. Turning to `O=C(c1ccccc1)N1CCC(O)(Cn2cnn3c(-c4ccccc4)ncc3c2=O)CC1`, the concentration for half-maximal inhibition (IC50) worked out at 1 µM. The compound `Cc1cc(C(F)(F)F)nn1Cc1ccc(C(=O)N2CCC(O)(Cn3cnn4cccc4c3=O)CC2)cc1` gave an IC50 of 1 µM. On the same count and under the same terms, to `O=C(c1ccccc1)c1ccc(C(=O)N2CCC(O)(Cn3cnn4cccc4c3=O)CC2)cc1` belongs 1 µM; to `O=C(c1ccc(Cn2nnc3ccccc32)cc1)N1CCC(O)(Cn2cnn3cccc3c2=O)CC1`, 1 µM. The same measure, in the same setting: then `O=C(c1cccc(-c2ccccc2F)c1)N1CCC(O)(Cn2cnn3cccc3c2=O)CC1`, with 1 µM. Same read-out and setting: then `O=C(c1ccc(-c2cccc(C(=O)N3CCC(O)(Cn4cnn5cccc5c4=O)CC3)c2)cc1)N1CCCC1`, with 1 µM; and `Cc1ccc2c(=O)n(CC3(O)CCN(C(=O)C(C)Cc4ccccc4)CC3)cnn12` (stereo not drawn), with 1 µM; and `NC(=O)c1ccc(-c2cccc(C(=O)N3CCC(O)(Cn4cnn5cccc5c4=O)CC3)c2)cc1`, with 1 µM. For `Cc1cc2c(=O)n(CC3(O)CCN(C(=O)CC(C)c4ccccc4)CC3)cnn2c1` (stereo not drawn), the IC50 turned out to be 1 µM. On the same count and under the same terms, to `O=C(c1ccc(Cc2cccs2)cc1)N1CCC(O)(Cn2cnn3cccc3c2=O)CC1` belongs 1 µM; to `Cn1c(-c2cccc(C(=O)N3CCC(O)(Cn4cnn5cccc5c4=O)CC3)c2)cc2ccccc21`, less than 1 µM; to `Cc1ccccc1-c1cccc(C(=O)N2CCC(O)(Cn3cnn4cccc4c3=O)CC2)c1`, 1 µM.

As to `CCC(Cc1ccccc1)C(=O)N1CCC(O)(Cn2cnn3cccc3c2=O)CC1` (stereo not drawn), inhibition was half-maximal at 1 µM (IC50). On to `O=C(c1cccc(-c2ccc3scnc3c2)c1)N1CCC(O)(Cn2cnn3cccc3c2=O)CC1`, for which half-maximal inhibition (IC50) required 1 µM. Still for that read-out and setting: to `Cc1cc(C)n(Cc2ccc(C(=O)N3CCC(O)(Cn4cnn5cccc5c4=O)CC3)cc2)n1` belongs 1 µM; to `O=C(c1cccc(-c2ccc3c(c2)OCO3)c1)N1CCC(O)(Cn2cnn3cccc3c2=O)CC1`, 1 µM; to `Cc1ccc2cc(-c3ccc(C(=O)N4CCC(O)(Cn5cnn6cccc6c5=O)CC4)cc3)ccc2n1`, 1 µM. Compound `O=C(c1ccc(-c2ccc(C(=O)N3CCC(O)(Cn4cnn5cccc5c4=O)CC3)c(C3CCCC3)c2)cc1)N1CCCC1` showed a half-inhibitory concentration (IC50) of 1 µM. On the same count and under the same terms, to `O=C(c1cccc(-c2ccc3ncccc3c2)c1)N1CCC(O)(Cn2cnn3cccc3c2=O)CC1` belongs 1 µM; to `CC(CC(=O)N1CCC(O)(Cn2cnn3cc(Cl)cc3c2=O)CC1)c1ccccc1` (stereo not drawn), 1 µM. The compound `O=C(c1ccc(Sc2ccccc2)cc1)N1CCC(O)(Cn2cnn3cccc3c2=O)CC1` registered an IC50 of 1 µM. For the compound `O=C(Nc1cc2c(=O)n(CC3(O)CCN(C(=O)C4CC4)CC3)cnn2c1)c1csc(-c2ccccc2)n1`, the IC50 stood at 1 µM. Take `CC(CC(=O)N1CCC(O)(Cn2cnn3cccc3c2=O)CC1)n1cccc1` (stereo not drawn): the IC50 was less than 0.2 µM. `O=C(c1cccc(-c2cccc(Cl)c2)c1)N1CCC(O)(Cn2cnn3cccc3c2=O)CC1`: the half-maximal inhibitory concentration (IC50) turned out to be 1 µM. In the case of `O=C(c1cccc(-c2cccc(F)c2)c1)N1CCC(O)(Cn2cnn3cccc3c2=O)CC1`, the IC50 is 1 µM.

`Cc1cc2c(=O)n(CC3(O)CCN(C(=O)C(C)Cc4ccccc4)CC3)cnn2c1` (stereo not drawn) returned an IC50 of 1 µM. Same read-out and setting: to `O=C(c1cccc(-c2ccc(Cl)cc2)c1)N1CCC(O)(Cn2cnn3cccc3c2=O)CC1` belongs 1 µM; to `O=C(c1cccc(-c2ccccc2)c1)N1CCC(O)(Cn2cnn3cccc3c2=O)CC1`, 1 µM.

As to `O=C(c1cnc(C2CC2)o1)N1CCC(O)(Cn2cnn3c(-c4ccc(F)cc4)ncc3c2=O)CC1`, the half-maximal inhibitory concentration (IC50) was 1 µM. `CCN(c1ccccc1)c1ccc(C(=O)N2CCC(O)(Cn3cnn4cccc4c3=O)CC2)cc1` showed a concentration for half-maximal inhibition (IC50) of 1 µM. Take `O=C(c1ccc(S(=O)(=O)c2ccccc2)cc1)N1CCC(O)(Cn2cnn3cccc3c2=O)CC1`: the IC50 worked out at 1 µM.

The compound `C[C@H](CC(=O)N1CCC(O)(Cn2cnn3cccc3c2=O)CC1)c1ccccc1` yielded a half-inhibitory concentration (IC50) of less than 0.2 µM.

For the compound `CC(=O)Nc1cc2c(=O)n(CC3(O)CCN(C(=O)C[C@@H](C)c4ccccc4)CC3)cnn2c1`, the half-maximal inhibitory concentration (IC50) was less than 1 µM. With `O=C(c1ccc(F)cc1)N1CCC(O)(Cn2cnn3c(-c4ccc(F)cc4)ncc3c2=O)CC1`, the IC50 is 1 µM. In the case of `CC(C)(c1ccccc1)c1ccc(C(=O)N2CCC(O)(Cn3cnn4cccc4c3=O)CC2)cc1`, the concentration for half-maximal inhibition (IC50) is 1 µM. `O=C(c1ccc(-c2cnc3ccccc3c2)cc1)N1CCC(O)(Cn2cnn3cccc3c2=O)CC1` returned an IC50 of 1 µM.

Regarding `O=C(c1ccc(Cn2ccnc2)cc1)N1CCC(O)(Cn2cnn3cccc3c2=O)CC1`, the half-inhibitory concentration (IC50) amounted to 1 µM.

The compound `COc1ccc(-c2cccc(C(=O)N3CCC(O)(Cn4cnn5cccc5c4=O)CC3)c2)cc1` displayed a half-maximal inhibitory concentration (IC50) of 1 µM.

Turning to `Cc1ccc2c(=O)n(CC3(O)CCN(C(=O)CC(C)c4ccccc4)CC3)cnn12` (stereo not drawn), the concentration for half-maximal inhibition (IC50) is less than 1 µM. On the same count and under the same terms, then `O=C(COc1cccc(Cl)c1Cl)Nc1cc2c(=O)n(CC3(O)CCN(C(=O)C4CC4)CC3)cnn2c1`, with 1 µM; and `Cc1ccc(-c2ncc3c(=O)n(CC4(O)CCN(C(=O)C[C@H](C)n5cccn5)CC4)cnn23)cc1`, with 1 µM.

`CC(CC(=O)N1CCC(O)(Cn2cnn3cccc3c2=O)CC1)c1ccccc1` (stereo not drawn) showed an IC50 of less than 1 µM. As for `Cc1ccc(OCC(=O)Nc2cc3c(=O)n(CC4(O)CCN(C(=O)C5CC5)CC4)cnn3c2)cc1C`, 1 µM corresponded to half-maximal inhibition (IC50). On the same count and under the same terms, to `Cc1ccc(-c2cccc(C(=O)N3CCC(O)(Cn4cnn5cccc5c4=O)CC3)c2)cc1` belongs 1 µM; to `O=C(c1ccc(-c2ccc(C(=O)N3CCC(O)(Cn4cnn5cccc5c4=O)CC3)c(Cl)c2)cc1)N1CCCCC1`, 1 µM. As to `CN(C)C(=O)c1ccc(-c2cccc(C(=O)N3CCC(O)(Cn4cnn5cccc5c4=O)CC3)c2)cc1`, 1 µM corresponded to half-maximal inhibition (IC50). As to `O=C(c1ccc(Cn2cnc3ccccc32)cc1)N1CCC(O)(Cn2cnn3cccc3c2=O)CC1`, inhibition was half-maximal at 1 µM (IC50). Take `Cc1ccc(-c2ncc3c(=O)n(CC4(O)CCN(C(=O)CC(C)n5cccn5)CC4)cnn23)cc1` (stereo not drawn): the half-maximal inhibitory concentration (IC50) worked out at 1 µM.

Take `Cc1ccc2[nH]ncc2c1-c1cccc(C(=O)N2CCC(O)(Cn3cnn4cccc4c3=O)CC2)c1`: half-maximal inhibition (IC50) was put at 1 µM. In the case of `CC(C)(C)C(Cc1ccccc1)C(=O)N1CCC(O)(Cn2cnn3cccc3c2=O)CC1` (stereo not drawn), the concentration for half-maximal inhibition (IC50) was found to be 1 µM.

In another assay the target is T1, Ubiquitin carboxyl-terminal hydrolase 7. Nature of the assay: Inhibition of human USP7 using Ub-EKL as substrate.
On to `Nc1ncc(Cl)c(Sc2nnc(C(=O)Nc3ccc4c(c3)S(=O)(=O)C=C4)s2)c1Cl`, for which the EC50 is 2 µM. Compound `CN(C)CCCOc1ccc(NC(=O)c2nnc(Sc3c(Cl)cncc3Cl)s2)cc1` had an EC50 of less than 1 µM. For `O=C(Nc1ccc2c(c1)S(=O)(=O)C=C2)c1nnc(Sc2c(Cl)cncc2Br)s1`, the 50% effective concentration (EC50) was less than 1 µM.

Take `CC(=O)c1cccc(NC(=O)c2nnc(Sc3c(Cl)cncc3Cl)s2)c1`: the EC50 stood at 1 µM. As for `O=C(Nc1ccc2c(c1)S(=O)(=O)C=C2)c1cnc(Sc2ccncc2Cl)s1`, the EC50 was determined as 5 µM. `COCCOCCN(C(=O)c1nnc(Sc2c(Cl)cncc2Cl)s1)c1ccc2c(c1)S(=O)(=O)CC2` displayed an EC50 of 2 µM. Turning to `O=C(Nc1ccc2c(c1)S(=O)(=O)C=C2)c1nnc(Sc2c(Cl)cccc2Cl)s1`, the EC50 is greater than 10 µM. As to `O=C(Nc1cnc2ccccc2c1)c1nnc(Sc2c(Cl)cncc2Cl)s1`, the EC50 worked out at 1 µM. The compound `O=C(Nc1ccc(NCCCN2CCOCC2)cc1)c1nnc(Sc2c(Cl)cncc2Cl)s1` displayed a 50% effective concentration (EC50) of less than 1 µM.

`O=C(Nc1ccc2c(c1)S(=O)(=O)C=C2)c1cnc(Sc2c(Cl)cncc2Cl)o1` yielded a concentration giving a half-maximal response (EC50) greater than 10 µM. On the same count and under the same terms, to `O=C(Nc1cccc(Cl)n1)c1nnc(Sc2c(Cl)cncc2Cl)s1` belongs less than 1 µM. `CN(C)CCCNc1ccc(NC(=O)c2nnc(Sc3c(Cl)cncc3Cl)s2)cc1` registered a concentration giving a half-maximal response (EC50) of less than 1 µM. In the case of `O=C(Nc1cnccn1)c1nnc(Sc2c(Cl)cncc2Cl)s1`, the 50% effective concentration (EC50) was less than 1 µM.

Compound `CN(C)CCCOc1ccc(NC(=O)c2nnc(Sc3c(Cl)cncc3Br)s2)cc1` gave a 50% effective concentration (EC50) of less than 1 µM.

Compound `O=C(Nc1ccc2c(c1)S(=O)(=O)C=C2)c1sc(Sc2c(Cl)cncc2Cl)nc1C(F)(F)F` returned a concentration giving a half-maximal response (EC50) of 5 µM.

The compound `CN(C)CCNC1CS(=O)(=O)c2cc(NC(=O)c3nnc(Sc4c(Cl)cncc4Cl)s3)ccc21` (stereo not drawn) came in with an EC50 of less than 1 µM. As to `O=C(Nc1ccc2c(c1)S(=O)(=O)C=C2)c1nnc(Sc2c(F)cncc2Cl)s1`, it took 5 µM to reach a half-maximal effect (EC50).

For `O=C(Nc1ccc2c(c1)S(=O)(=O)CC2)c1nnc(Sc2c(Cl)cncc2Cl)s1`, the concentration giving a half-maximal response (EC50) was less than 1 µM.

In turn, `O=C(Nc1ccc2c(c1)C(=O)CC2)c1nnc(Sc2c(Cl)cncc2Cl)s1` yielded a half-maximal effective concentration (EC50) of 1 µM. As to `O=C(Nc1ccc2c(c1)S(=O)(=O)C=C2)c1nnc(Sc2c(Cl)cncc2Cl)s1`, the EC50 was less than 1 µM. `CN(C)CCCNC1CS(=O)(=O)c2cc(NC(=O)c3cnc(Sc4c(Cl)cncc4Cl)s3)ccc21` (stereo not drawn) registered an EC50 of less than 1 µM.

In turn, `CN(C)CCCOc1ccc(NC(=O)c2cnc(Sc3c(Cl)cncc3Cl)s2)cc1` showed a concentration for a half-maximal effect (EC50) greater than 10 µM. Same read-out and setting: to `Cc1nc2ccc(NC(=O)c3nnc(Sc4c(Cl)cncc4Cl)s3)cc2s1` belongs 1 µM; to `CN(C)CCCOc1ccc(NC(=O)c2nnc(Sc3c(Cl)cncc3Cl)o2)cc1`, greater than 10 µM; to `CNS(=O)(=O)c1ccc(NC(=O)c2nnc(Sc3c(Cl)cncc3Cl)s2)cc1`, less than 1 µM. `O=C(Nc1ccc2c(c1)S(=O)(=O)C=C2)c1nnc(Sc2c(Cl)cncc2Cl)o1` had an EC50 of less than 1 µM. With `CN(C(=O)c1nnc(Sc2c(Cl)cncc2Cl)s1)c1ccc2c(c1)S(=O)(=O)C=C2`, the EC50 turned out to be 1 µM.

In turn, `CN(C)CCOc1cccc(NC(=O)c2nnc(Sc3c(Cl)cncc3Cl)s2)c1` showed an EC50 of less than 1 µM.

`O=C(Nc1ccc2c(c1)S(=O)(=O)CC2NCCN1CCOCC1)c1nnc(Sc2c(Cl)cncc2Cl)s1` (stereo not drawn) yielded an EC50 of less than 1 µM.

The term IC50 denotes the concentration that gives 50% inhibition. A higher IC50 goes with weaker potency. By EC50 is commonly meant the concentration needed to bring the measured effect to its halfway point. A low value points to a more potent agent.
